These results are taken from patent publication US20200308162A1, “DRUGS AND COMPOSITIONS FOR OCULAR DELIVERY” (Graybug Vision, Inc., priority 2017, published 2020).

Molecules are shown by their SMILES.

For data set [1] the following is noted: carboxylic acid; cited from earlier work.
For data set [2], the system named is rabbit eyes. The conditions noted are these: topical eye drops, cited from earlier work.
Data set [3] has as its system monkey eyes. The conditions noted are these: topical eye drops, cited from earlier work.
Data set [4] relates to glaucomatous monkey eyes. The conditions noted are these: ointment, highest concentration of 2.5% ECA, four glaucomatous monkey eyes; cited from earlier work.
The nature of data set [5]: In vitro stability of ethacrynic acid prodrugs at 37° C. It counts as physicochemical. The conditions noted are these: 37° C. The text has this: As evidenced, both prodrugs of ethacrynic acid degrade steadily over the 6 day period. As the ester linkages are hydrolyzed, the parent compound is generated in a linear rate. The rate of degradation to the parent compound is faster for the shorter […] in comparison to the degradation kinetics for ethacrynic acid-PLA(n=4)-ethyl ester (1).
Approximately 94% of the ECA-PLA(n=4) prodrug (1) has been converted to free ECA by day 6, in comparison to only 56% for ECA-PLA(n=6) (25). Also, by day 6, all the initial prodrug has been degraded into intermediates and free drug respectively.

Data set [6] can be described thus: Percent drug loading of ethacrynic acid prodrug microparticles (RP-HPLC). The class given is physicochemical. How it is done:
To determine the percent drug loading (% DL), 10 mg of particles was weighed into a glass scintillation vial and dissolved with 10 mL of MeCN:water (1:1, v/v). The solution was filtered through a 0.2 μm nylon syringe filter and the drug content was determined by RP-HPLC referenced against a standard calibration curve.

A short description of data set [7]: Mean size of ethacrynic acid prodrug encapsulated microparticles. It counts as physicochemical.
Data set [8] is described as follows: Drug release kinetics of Timolol and ethacrynic acid prodrugs from polymer microparticles. It counts as physicochemical. How it is done: The effect of polymer composition including monomer ratio and molecular weight, polymer end-groups (ester or acid), inherent viscosity and polymer blend ratios on particle degradation and drug release kinetics of Timolol-O-ethyl fumurate (17) was evaluated and is illustrated in FIG. 5. The rate of particle degradation was slowed and drug release was prolonged when the mole % of DL-lactide over glycolide was increased. By incorporating polymers with different monomer ratios (i.e., PLA, PLGA8515, PLGA525, PLGA5050 wherein 8515 refers to 85% DL-lactide and 15% glycolide) into the particles, it is possible to fine-tune the degradation rate of the particles to achieve a linear rate of drug release from the particles to minimize burst or lag and to extend the duration of release. […] The 78/22(PLA 5A/PLGA8515 4.5A) and 65/20/15(PLA 4A/PLGA6515 4.5A/PLGA5050 4A) polymer blends generated ideal particles for a 3-6 month linear release formulation. […] The rate of release was independent of the salt form. […] Thus, release rate is not solely dictated by the physicochemical properties of the linker, but rather must be attributed to a combination of parameters that may include linker type and site of linker conjugation.
FIG. 6 illustrates the release kinetics of ethacrynic acid-PLA(n=4)-ethyl ester (1) from PLGA microparticles. The drug was released over a period of approximately 66 days.
FIG. 8 and FIG. 9 illustrate the release kinetics of ethacrynic acid-PLA(n=4)-ethyl ester (1) and ethacrynic acid-PLA(n=6)-ethyl ester (25), respectively, from PLGA microparticles. The drug was released from a number of formulations over a period of greater than 90 days. […] Particles generated with 1% PVA in PBS was compared against particles generated in 1% PVA in water (FIG. 10).
Based upon these initial formulation screens, the formulation comprising of 1% mPEG-PLGA and 99% PLA100 4.5A:PLGA8515 5A (77:22) was selected as the lead formulation for ECA-PLA(n=4) (1) and ECA-PLA(n=6) (25) prodrugs. The particles were prepared in 1% PVA in water. The release profiles for the lead ECA-PLA(n=4) (1) and ECA-PLA(=6) (25) particle formulations are illustrated in FIG. 11.

Data set [9] in a line: Degradation of ECA prodrugs heated at 60° C. in water/acetonitrile (HPLC-MS). The class given is physicochemical. As to conditions: 60° C. in 50/50 water (0.1% FA)/acetonitrile (0.1% FA). How it is done:
Prodrugs of ECA were challenged by heating at 60° C. in 50/50 water (0.1% FA)/acetonitrile (0.1% FA), and the degradants were separated using a reverse phase HPLC equipped with a C-18 bonded stationary phase. The identification of various peaks was accomplished by mass spectrometry detector and retention time comparison with available standards.
Chromatographic separation of ethacrynic acid parent compounds and their PLA conjugated derivatives was achieved using an Agilent 1260 Infinity II LCMS equipped with an Waters Symmetry C18 column (5 μm, 4.6 mm×150 mm) as the stationary phase and acetonitrile/water as the mobile phase. The gradient separation method is outlined in Table 4. The analysis was performed at an injection volume of 10 μL, a flow rate of 1.2 mL/min and a detection wavelength of 230 nm at 25° C. Retention times for ethacrynic acid and PLA-conjugated compounds are illustrated in Table 5.
Table 6 illustrates the calculated mass and structure of all the individual intermediates and the parent compound. Calculated mass ions were extracted using a MS G6135B detector with positive and negative polarity acquisition between mass 100-1000, fragmentation at 250, gain at 1, threshold of 150, and speed of 2080 u/sec. Extracted ions and polarity for individual mass spectometry peak identification is outlined in Table 7.

The nature of data set [10]: Drug solubility in water, DMSO and DCM (HPLC of filtered supernatant). As to conditions: thermodynamic from solid.
Procedure: For each test, approximately 5-10 mg was transferred to a 10 mL glass vial. Aqueous or organic solvent was added to each vial to achieve an overall concentration of 50 mg/mL. After vortexing aggressively for 2-3 minutes and sonicating in a bath sonicator for 5 minutes, undissolved drug was spun down at 1200 rpm for 5 minutes to generate a pellet. The supernatant was collected and filtered through a 0.2 μm nylon syringe filter into HPLC vials for drug content analysis. Drug concentration was determined by comparing against a standard calibration curve.
[11] abbreviates: PLA100 4.5A + 1% PEG-PLGA5050, polymer 200 mg/mL.
Setting [12] is: PLA100 4.5A + PLGA7525 6E (69:30) + 1% PEG-PLGA5050, polymer 200 mg/mL.
[13] abbreviates: PLA100 4.5A + PLGA8515 5A (77:22) + 1% PEG-PLGA5050, polymer 200 mg/mL.
The mark [14] stands for this setting: PLA100 4.5A + PLGA8515 5A + PLGA5050 4A (64:20:15) + 1% PEG-PLGA5050, polymer 200 mg/mL.
[15] abbreviates: PLA100 4.5A + PLGA8515 5A + PLGA5050 4A (64:30:5) + 1% PEG-PLGA5050, polymer 200 mg/mL.
The mark [16] stands for this setting: PLGA7525 4A + 1% PEG-PLGA5050, polymer 200 mg/mL.

For `C=C(CC)C(=O)c1ccc(OCC(=O)O)c(Cl)c1Cl` [ECA, ethacrynic acid], the pka result in data set [1] is reported as “approximately 2.8”. Also, the ocular adverse effects entry is “corneal edema and moderate diffuse superficial corneal erosion” in [2] (especially at higher doses); “corneal edema and moderate diffuse superficial corneal erosion” in data set [3] (especially at higher doses); “mild eyelid edema, conjunctival hyperemia, and discharge” in [4]. The “effect on IOP” value in [2] (rabbit eyes) and in data set [3] (monkey eyes) was “effective in decreasing IOP” throughout.

Take `C=C(CC)C(=O)c1ccc(OCC(=O)O[C@@H](C)C(=O)O[C@@H](C)C(=O)O[C@@H](C)C(=O)O[C@@H](C)C(=O)O[C@@H](C)C(=O)O[C@@H](C)C(=O)OCC)c(Cl)c1Cl` [Compound 25, (S)-2-((S)-2-[(S)-2-((S)-2-(2-[2,3-Dichloro-4-(2-methylene-butyryl)-phenoxy]-acetoxy)-propionyloxy)-propionyloxy]-propionyloxy)-propionic acid (S)-1-((S)-1-ethoxycarbonyl-ethoxycarbonyl)-ethyl ester]: the “rate of degradation of the prodrug” value in [5] (6 days) was “degraded slightly slower”. Further, the “prodrug converted to free ECA by day 6” value in data set [5] (day 6) is on record as 56%. Besides, the “% Drug loading” value is given as 13.83% in data set [6] (setting [11]); 11.56% in [6] (setting [12]); 12.29% in data set [6] (setting [13]); 14.22% in data set [6] (setting [14]); 13.53% in data set [6] (setting [15]); 12.43% in data set [6] (setting [16]). Also, the “% Drug loading” value in [6] (theoretical loading 15) stood at 13.5%; in [6] (theoretical loading 20), 18.1%; in [6] (theoretical loading 30) it was 27.4%; in data set [6] (theoretical loading 40), 38.2%. Also, the “% Encapsulation Efficiency” value in data set [6] (theoretical loading 15) is reported as 90.0%; in data set [6] (theoretical loading 20) it was 90.5%; in data set [6] (theoretical loading 30) it was 91.3%; in data set [6] (theoretical loading 40), 95.5%. Besides, the Mean size amounted to 27.62 um in data set [7] (setting [11]); 26.95 um in data set [7] (setting [12]); 27.88 um in data set [7] (setting [13]); 26.59 um in [7] (setting [14]); 26.27 um in data set [7] (setting [15]); 26.19 um in data set [7] (setting [16]). In data set [8] (1% mPEG-PLGA and 99% PLA100 4.5A:PLGA8515 5A (77:22), prepared in 1% PVA in water, FIG. 11), the “in vitro release profile of lead microparticle formulation” value is “much more linear release profile”. The “rate of drug release as a function of drug loading” value in [8] (microparticles with 13.5, 18.1, 27.4 and 38.2 % DL, FIG. 4) is “rate of drug release increased with increasing drug loading”. Further, the hydrolysis products entry in [9] is recorded as “hydrolyze into five intermediates”. Also, the solubility was above 50 mg/mL in [10] (DMSO, organic solvent or mixture) and below 0.1 mg/mL in [10] (water).

The solubility is how much of the substance goes into solution per volume.
